From patent publication US8486991B2, “Enantiomerically pure phosphoindoles as HIV inhibitors” (Idenix Pharmaceuticals, Inc., priority 2006, dated 2013)
Where “and” joins values, the source holds several entries; their conditions need not be identical. Equal entries are not always repeated. Entries after “also recorded” stand apart in the source; their conditions may differ. Where two headings read alike, the source gives them in different places.

What was measured:
HIV-2 ROD = HIV-2 ROD WT in H9 cell assay; format: cell-based
Description: The susceptibility of HIV type 2 ROD in H9 cells to Compound I and Compound III was determined against zidovudine (AZT) as a control.

[1] = In vivo pharmacokinetics, monkeys; set-up: species or system monkey; settings: for bioavailability: read-out: BA (absolute oral bioavailability); for concentration at 24 h: 5 mg/kg oral dose, read-out: plasma concentrations at 24 hours post-dose
Description: All animals received a single oral or intravenous dose of compound in either polyethylene glycol 400 (PEG400) or a mixture of 10% ethanol (EtOH), 10% dimethylacetamine (DMA) and 80% PEG400 at the indicated dose level. Plasma concentration data were acquired using sensitive and specific LC-MS/MS methods. Pharmacokinetic data from the toxicity study included aspects of gender differences, variability and exposure.
Blood samples (1.5-2.5 mL) were collected in heparinized tubes at 0 (pre-dose), 5 (IV only), 10, 20, 30 min, 1, 2, 4, 6, 8, 12 (PO only) and 24 hr after dosing. Plasma was separated and stored at −70° C. until analysis.
Concentrations of unlabeled compound I and compound III within plasma samples and excreta from rat, dog and monkey PK studies were identified through high performance liquid chromatographic (HPLC) methods that incorporated tandem mass spectrometric detection (LC-MS/MS).
The absolute oral bioavailability was determined in pharmacokinetic by comparison of AUC values of parent compound following single intravenous and oral doses of in rats (compound III only), dogs and monkeys.

wild-type HIV-1 virus = assay: In vitro drug-drug interaction with NRTIs and PIs, MT-4 cells, 45% HS; format: cell-based; settings: 45% human serum, low (1×) and high (5×) concentration
Description: The in vitro effect of each antiretroviral drug on the antiviral activity of either test article was tested in triplicate on wild-type HIV-1 virus infection of MT-4 human T cells using a standard drug susceptibility assay (DSA) performed in 45% human serum (HS) to provide a better estimate of interactions that would occur under protein binding conditions found in vivo. Compound I or Compound III were titrated alone or in combination with each NRTI or PI.
The impact of each NRTI or PI on the efficacy of Compound I or Compound III was tested at two different drug concentrations, a “low” (1×) and a “high” (5×) concentration; the high concentration used for each compound was determined from pilot experiments conducted to ensure that measurable inhibition values could still be obtained in the presence of 45% HS.
These in vitro drug-drug interaction studies were powered primarily to determine the potential for negative interactions between the different classes of HIV drugs, rather than to examine the potential for synergy between the different agents.

[2] = Compound depletion in hepatocytes, human; format: in vitro ADME; settings: up to 2 hours; for t½, Compound Depletion in Hepatocytes, Human: 1 μM; for half-life at 1 μM: human, read-out: t½, Compound Depletion in Hepatocytes, Human
Description: (§1) Fresh hepatocytes were plated onto collagen-coated plates and exposed to test compounds at 1 μM for up to 2 hours. Tissue culture medium was assayed for compound depletion by LC/MS detection. Values in Table 23 represent independent experiments from 5 to 7 donors.

Sprague-Dawley rats = assay: 14-day oral toxicity, rats; format: in vivo, rat; settings: for thyroid microscopic findings / effects on food consumption or body weight: rats; for thyroid microscopic findings: all dose groups except low dose compound III-treated females; for effects on food consumption or body weight: once daily oral gavage 14 days, up to 500 (I) or 450 (III) mg/kg/day
Description: Sprague-Dawley rats and cynomolgus monkeys were dosed once daily for 14 days via oral gavage with compound I or compound III or dose vehicle (68% Capmul PG-8, 20% PEG 400, 2% Tween 20, and 10% Labrasol) according to GLP. There were 10 male and 10 female rats, and there were 3 male and 3 female monkeys. Rats and monkeys were dosed with 0, 50, 150 or 500 mg/kg/day compound I or with 0, 50, 150, 450 mg/kg/day compound III.
Toxicity was assessed using clinical observations, body weights, food consumption, and clinical pathology (hematology, coagulation, and serum chemistry).
A comprehensive necropsy and gross pathological examination was performed on all animals and selected organs and tissues were collected for histological evaluation.
Determinations of hematocrit, hemoglobin concentration, erythrocyte count, total leukocyte count, and platelet count were conducted on all samples. Leukocyte differential and morphologic assessments were performed.
Clinical biochemistry determinations included activities of alanine aminotransferase (ALT), aspartate aminotransferase (AST), gamma-glutamyltranspeptidase (GGT), and alkaline phosphatase (ALP) and concentrations of blood urea nitrogen (BUN), creatinine, total protein, albumin, globulin, glucose, cholesterol, triglycerides, total bilirubin, and electrolyte levels (Na, K, P, Cl, Ca).

[3] = Plasma protein binding by equilibrium dialysis, monkey; format: in vitro ADME
Description: (§2) The in vitro plasma protein binding of compound I and compound III in rat, dog, monkey and human plasma was determined by equilibrium dialysis. Protein binding was assessed by equilibrium dialysis using rat, dog, monkey and human plasma. Samples were assayed by HPLC with LC-MS/MS detection. Plasma protein binding was high (>99%) for all species and for both compounds.

CYP2D6 = CYP2D6 (Homo sapiens, UniProt P10635); assay: Human liver microsomal CYP450 inhibition, CYP2D6; settings: for IC50, CYP2D6: human liver microsomes
CYP2D6, sequence (P10635 whole entry): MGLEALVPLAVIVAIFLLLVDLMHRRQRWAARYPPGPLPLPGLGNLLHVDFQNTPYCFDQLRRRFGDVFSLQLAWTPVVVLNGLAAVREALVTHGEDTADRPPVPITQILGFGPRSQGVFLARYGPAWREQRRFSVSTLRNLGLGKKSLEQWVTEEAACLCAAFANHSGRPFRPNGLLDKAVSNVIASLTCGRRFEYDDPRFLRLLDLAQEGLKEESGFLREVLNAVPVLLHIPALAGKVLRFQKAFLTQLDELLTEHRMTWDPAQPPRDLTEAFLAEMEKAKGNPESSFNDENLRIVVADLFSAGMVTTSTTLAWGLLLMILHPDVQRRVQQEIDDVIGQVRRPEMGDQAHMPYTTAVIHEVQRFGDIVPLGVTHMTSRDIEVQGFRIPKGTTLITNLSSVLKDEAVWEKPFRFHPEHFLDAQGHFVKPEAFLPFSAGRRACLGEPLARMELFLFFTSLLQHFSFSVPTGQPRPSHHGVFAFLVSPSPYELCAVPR
Description: In addition, the type of inhibition was also evaluated.
Enzyme kinetic studies of cytochrome P450 isozyme inhibition were conducted using human liver microsomes.

CYP3A4 = CYP3A4 (Homo sapiens, UniProt P08684); assay: Recombinant CYP450 inhibition, fluorometric, CYP3A4; format: in vitro ADME; set-up: from tissue; host or cells: pooled human liver microsomes
CYP3A4, sequence (P08684 whole entry, the tested form may be a part): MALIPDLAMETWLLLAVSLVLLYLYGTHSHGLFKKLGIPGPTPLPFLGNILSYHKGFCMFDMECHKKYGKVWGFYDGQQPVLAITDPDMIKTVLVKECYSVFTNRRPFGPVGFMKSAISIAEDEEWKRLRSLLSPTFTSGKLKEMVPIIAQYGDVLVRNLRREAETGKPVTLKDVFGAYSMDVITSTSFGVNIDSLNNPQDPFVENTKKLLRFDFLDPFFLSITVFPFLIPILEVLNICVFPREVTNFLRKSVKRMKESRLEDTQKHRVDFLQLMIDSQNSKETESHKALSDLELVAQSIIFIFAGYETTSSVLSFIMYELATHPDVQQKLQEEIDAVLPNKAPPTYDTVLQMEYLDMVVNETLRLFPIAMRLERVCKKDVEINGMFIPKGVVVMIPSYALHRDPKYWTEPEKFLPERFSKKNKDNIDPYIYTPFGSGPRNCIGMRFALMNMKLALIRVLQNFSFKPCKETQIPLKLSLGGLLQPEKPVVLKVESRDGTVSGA
Description: Compounds were assayed using recombinant human microsomal proteins with fluorometric substrates. Signal was measured with a Fusion plate reader utilizing the appropriate excitation and emission wavelength set to detect the specific metabolite: […]

[4] = In vitro half-life in liver microsomes, human; format: in vitro ADME; settings: up to one hour, longer half-lives are extrapolated, n=1
Description: (§3) In vitro metabolism was assessed using liver microsomes for all species. Compounds were incubated at 1 μM with liver microsomes for up to one hour. Reported half-lives greater than the total incubation time are extrapolated values. Extracts were assayed for disappearance of parent compound by LC-MS/MS detection.
(§4) Data represents one independent experiment conducted.

[5] = In vitro half-life in liver microsomes, monkey; format: in vitro ADME; settings: up to one hour, n=1
Description: as §3, §4

[6] = Compound depletion in hepatocytes, rat; format: in vitro ADME; settings: up to 2 hours, read-out: t½, Compound Depletion in Hepatocytes, Rat
Description: as §1

MT-4 cells = assay: Cellular cytotoxicity, 4 days, MTS, MT-4; settings: for CC50: read-out: Average CC50 Values ± Standard Deviation, MT-4, Table 21, 4 days, MTS
Description: Following drug exposure for 4 days, cell viability was measured by MTS staining and CC50 values were determined. Drug concentrations ranged from 0.005 μM to 100 μM.
The preceding data, allows us to calculate selectivity index (SI) values, based on the ratio of CC50 to EC50 in MT-4 cells (the standard assay used in this work).

[7] = Plasma protein binding by equilibrium dialysis, human; format: in vitro ADME
Description: as §2

[8] = Table 18, highest concentration assayed 1.25 μM
[9] = fresh hepatocytes plated on collagen-coated plates

With `CO[P@](=O)(c1cc(C)cc(/C=C/C#N)c1)c1c(C(N)=O)[nH]c2ccc(Cl)c(F)c12` [Compound I, (2-Carbamoyl-5-chloro-4-fluoro-1H-indol-3-yl)-[3-((E)-2-cyano-vinyl)-5-methyl-phenyl]-(R)-phosphinic acid methyl ester] the EC50 (HIV-2 ROD; Human immunodeficiency virus 2, H9, read-out: EC50 Values) was > 1250 nM, the “EC50 Values” (HIV-2 ROD; [8]) was “failed to suppress HIV-2 ROD replication” and the “bioavailability in males based on AUC values, excluding one animal” value ([1]; Monkey, 5 mg/kg oral) was 75%. For the same molecule, the Tmax ([1]; female, monkey, in vivo, po, 5 mg/kg, 5 mg/kg PO-Fed, 3F, median) was 4 h, the bioavailability ([1]; female, monkey, in vivo, po, 5 mg/kg, Monkey, 5 mg/kg PO-Fed, 3F (females)) was 61% and the concentration at 24 h ([1]; in vivo, monkey) was 17.9 ng/mL. For the same molecule, the Tmax ([1]; male, monkey, in vivo, po, 5 mg/kg, 5 mg/kg PO-Fed, 3M, median) was 4 h, the Tmax ([1]; male, monkey, in vivo, po, 5 mg/kg, 5 mg/kg PO-Fed, males (3M or 2M), mean) was 2.7 h and the bioavailability ([1]; male, monkey, in vivo, po, 5 mg/kg, Monkey, 5 mg/kg PO-Fed, 3M (males)) was 54%. The bioavailability ([1]; male, monkey, in vivo, po, 5 mg/kg, Monkey, 5 mg/kg PO-Fed, males (3M or 2M), exploratory study) was 58%, the “interaction with 7 NRTIs or 6 PIs” value (wild-type HIV-1 virus) was “no negative interaction observed; also recorded: none of the seven HIV NRTI drugs or the six HIV PI drugs tested exhibited a measurable negative or antagonistic interaction” and the “t½, Compound Depletion in Hepatocytes, Human” value [2] was “limited in vitro metabolism”. The half-life at 1 μM ([2]; hepatocytes) was 215 ± 48 min, the thyroid microscopic findings (Sprague-Dawley rats) was “minimal to mild thyroid follicular cell hypertrophy/hyperplasia” and the “effects on food consumption or body weight” value (Sprague-Dawley rats) was “No effects”. The “Percentage Plasma Protein Binding, Monkeys” value [3] was 99.9%, the IC50 (CYP2D6) was > 20 µM and the “IC50, CYP2D6” value (CYP2D6) was “not observed”. For the same molecule, the IC50 (CYP3A4) was 1460 ± 390 nM, the half-life at 1 μM ([4]; microsomes) was 121 min and the half-life at 1 μM ([5]; microsomes) was 15.4 min. For the same molecule, the half-life at 1 μM ([6]; hepatocytes) was 33 ± 26 min, the “Selectivity Index (SI), CC50/EC50 in MT-4 cells” value (MT-4 cells) was > 18,000 and > 22,000 and the CC50 (MT-4 cells) was 18.6 ± 3.1 µM. The “Percentage Plasma Protein Binding, Humans” value [7] was 99.8%.
With `CO[P@](=O)(c1cc(C)cc(/C=C/C#N)c1)c1c(C(N)=O)[nH]c2ccc(Cl)cc12` [Compound III, (2-Carbamoyl-5-chloro-1H-indol-3-yl)-[3-((E)-2-cyano-vinyl)-5-methyl-phenyl]-(R)-phosphinic acid methyl ester] the EC50 (HIV-2 ROD; Human immunodeficiency virus 2, H9, Table 18, highest concentration assayed 1.25 μM, read-out: EC50 Values) was > 1250 nM, the “EC50 Values” (HIV-2 ROD; [8]) was “failed to suppress HIV-2 ROD replication” and the Tmax ([1]; female, monkey, plasma, po, 5 mg/kg, 5 mg/kg PO-Fed, 3F, median) was 2 h. It also gave a bioavailability ([1]; female, plasma, Monkey, 5 mg/kg PO-Fed, 3F (females)) of 76%, a Tmax ([1]; male, monkey, plasma, po, 5 mg/kg, 5 mg/kg PO-Fed, 3M, median) of 2 h and a Tmax ([1]; male, monkey, plasma, po, 5 mg/kg, 5 mg/kg PO-Fed, males (3M or 2M), mean) of 3 h. For the same molecule, the Tmax ([1]; male, monkey, plasma, po, 20 mg/kg, 20 mg/kg PO-Fed, 2M, mean) was 2.5 h, the bioavailability ([1]; male, plasma, Monkey, 5 mg/kg PO-Fed, 3M (males)) was 42% and the bioavailability ([1]; male, plasma, Monkey, 20 mg/kg PO-Fed, 2M) was 61%. The concentration at 24 h ([1]; plasma, monkey) was 12 ng/mL, the “interaction with 7 NRTIs or 6 PIs” value (wild-type HIV-1 virus) was “no negative interaction observed; also recorded: none of the seven HIV NRTI drugs or the six HIV PI drugs tested exhibited a measurable negative or antagonistic interaction” and the “t½, Compound Depletion in Hepatocytes, Human” value [2] was “limited in vitro metabolism”. For the same molecule, the half-life at 1 μM [2, 9] was 125 ± 55 min, the organ weights (Sprague-Dawley rats; rats (females only), mid and high doses, livers microscopically unremarkable) was “increased liver weights” and the thyroid microscopic findings (Sprague-Dawley rats) was “minimal to mild thyroid follicular cell hypertrophy/hyperplasia”. For the same molecule, the “effects on food consumption or body weight” value (Sprague-Dawley rats) was “No effects”, the “Percentage Plasma Protein Binding, Monkeys” value [3] was 99.9% and the IC50 (CYP2D6) was > 20 µM. For the same molecule, the “IC50, CYP2D6” value (CYP2D6) was “not observed”, the IC50 (CYP3A4; recombinant, highest concentration tested 10 μM, read-out: IC50, CYP3A4) was 2860 ± 780 nM and the half-life at 1 μM ([4]; liver microsomes) was 154 min. For the same molecule, the half-life at 1 μM ([5]; liver microsomes) was 12.6 min, the half-life at 1 μM [6, 9] was 17 ± 15 min and the “Selectivity Index (SI), CC50/EC50 in MT-4 cells” value (MT-4 cells) was > 22,000 and > 18,000. For the same molecule, the CC50 (MT-4 cells) was 27.3 ± 12.9 µM and the “Percentage Plasma Protein Binding, Humans” value [7] was 99.9%.
